# Results taken from ChEMBL document CHEMBL4616635, “Investigations of antiproliferative and antioxidant activity of β-lactam morpholino-1,3,5-triazine hybrids” (Bioorg Med Chem, 2020).
# Columns and labels:
# HEK293 = test: Cytotoxicity against human HEK293 cells assessed as inhibition of cell growth after overnight incubation by MTT assay; format: cell-based
# SW 1116 = test: Antiproliferative activity against human SW1116 cells assessed as inhibition of cell growth after overnight incubation by MTT assay; format: functional, cell-based
# [1] = Antioxidant activity assessed as DPPH radical scavenging activity measured for 5 mins by UV absorbance analysis; format: functional
# HepG2 = test: Antiproliferative activity against human HepG2 cells assessed as inhibition of cell growth after overnight incubation by MTT assay; format: functional, cell-based
# MCF7 = test: Antiproliferative activity against human MCF7 cells assessed as inhibition of cell growth after overnight incubation by MTT assay; format: functional, cell-based
# Calf thymus DNA [2] = test: Binding affinity to calf thymus DNA assessed as hypochromism by measuring red shift in absorption spectra at 68 uM after 2 mins by UV-vis spectroscopy; format: nucleic-acid assay; settings: Bos taurus
# Calf thymus DNA [3] = test: Binding affinity to calf thymus DNA assessed as binding constant at 68 uM after 2 mins by UV-vis spectroscopy; format: nucleic-acid assay; settings: Bos taurus
# Calf thymus DNA [4] = test: Binding affinity to calf thymus DNA assessed as hyperchromism by measuring blue shift in absorption spectra at 40 uM after 2 mins by UV-vis spectroscopy; format: nucleic-acid assay; settings: Bos taurus
# Calf thymus DNA [5] = test: Binding affinity to calf thymus DNA assessed as binding constant at 40 uM after 2 mins by UV-vis spectroscopy; format: nucleic-acid assay; settings: Bos taurus
# Calf thymus DNA [6] = test: Binding affinity to calf thymus DNA assessed as hypochromism by measuring red shift in absorption spectra at 40 uM after 2 mins by UV-vis spectroscopy; format: nucleic-acid assay; settings: Bos taurus
SMILES,IC50 (HEK293) [µM],IC50 (SW 1116) [µM],IC50 [1] [µg/mL],IC50 (HepG2) [µM],IC50 (MCF7) [µM],Activity (Calf thymus DNA [2]) [nm],Kb (Calf thymus DNA [3]) [×10⁵ /M],Activity (Calf thymus DNA [4]) [nm],Kb (Calf thymus DNA [5]),Activity (Calf thymus DNA [6]) [nm]
O=C1[C@@H](Oc2ccc(Cl)cc2)[C@@H](c2ccc(Oc3nc(N4CCOCC4)nc(N4CCOCC4)n3)cc2)N1c1ccc(Nc2nc(N3CCOCC3)nc(N3CCOCC3)n2)cc1,> 100,> 100,> 10000,> 100,> 100,,,,,
C(=N\c1ccc(Nc2nc(N3CCOCC3)nc(N3CCOCC3)n2)cc1)/c1ccc(Oc2nc(N3CCOCC3)nc(N3CCOCC3)n2)cc1,> 100,> 100,> 10000,> 100,> 100,,,,,
Clc1ccc(/C=N/c2ccc(Nc3nc(N4CCOCC4)nc(N4CCOCC4)n3)cc2)cc1,> 100,93.4,275,> 100,> 100,,,,,
COc1ccc(N2C(=O)[C@@H](Oc3ccccc3)[C@H]2c2ccc(Oc3nc(N4CCOCC4)nc(N4CCOCC4)n3)cc2)cc1,> 100,> 100,> 10000,> 100,> 100,,,,,
O=[N+]([O-])c1cccc(/C=N/c2ccc(Nc3nc(N4CCOCC4)nc(N4CCOCC4)n3)cc2)c1,> 100,15.1,445,> 100,> 100,,,,,
COc1ccc(N2C(=O)C3(c4ccccc4Oc4ccccc43)C2c2ccc(Oc3nc(N4CCOCC4)nc(N4CCOCC4)n3)cc2)cc1 (configuration not stated),> 100,38.4,> 10000,> 100,> 100,,,,,
COc1ccc(/N=C/c2ccc(Oc3nc(N4CCOCC4)nc(N4CCOCC4)n3)cc2)cc1,> 100,> 100,195,> 100,> 100,,,,,
O=C1N(c2ccc(Nc3nc(N4CCOCC4)nc(N4CCOCC4)n3)cc2)C(c2ccc([N+](=O)[O-])cc2)C12c1ccccc1Oc1ccccc12 (configuration not stated),> 100,> 100,> 10000,> 100,> 100,,,,,
CCOc1ccc(/N=C/c2ccc(Oc3nc(N4CCOCC4)nc(N4CCOCC4)n3)cc2)cc1,> 100,> 100,50,> 100,> 100,,,,,
O=[N+]([O-])c1ccc(/C=N/c2ccc(Nc3nc(N4CCOCC4)nc(N4CCOCC4)n3)cc2)cc1,> 100,3.32,195,> 100,> 100,-4,1.08,,,
O=C1N(c2ccc(Nc3nc(N4CCOCC4)nc(N4CCOCC4)n3)cc2)C(c2ccc(Cl)cc2)C12c1ccccc1Oc1ccccc12 (configuration not stated),> 100,2.06,> 10000,> 100,> 100,,,-2,0.935 ×10⁵ /M,
CN(C)c1ccc(/N=C/c2ccc(Oc3nc(N4CCOCC4)nc(N4CCOCC4)n3)cc2)cc1,> 100,15.6,30,> 100,> 100,,,,,
O=C1N(c2ccc(Nc3nc(N4CCOCC4)nc(N4CCOCC4)n3)cc2)C(c2cccc([N+](=O)[O-])c2)C12c1ccccc1Oc1ccccc12 (configuration not stated),> 100,> 100,> 10000,> 100,> 100,,,,,
O=C1[C@@H](Oc2ccccc2)[C@@H](c2ccc(Oc3nc(N4CCOCC4)nc(N4CCOCC4)n3)cc2)N1c1ccc(Nc2nc(N3CCOCC3)nc(N3CCOCC3)n2)cc1 (relative stereo),> 100,> 100,> 10000,> 100,> 100,,,,,
O=C1[C@@H](Oc2ccccc2)[C@@H](c2ccc(Cl)cc2)N1c1ccc(Nc2nc(N3CCOCC3)nc(N3CCOCC3)n2)cc1 (relative stereo),> 100,> 100,4800,> 100,> 100,,,,,
CCOc1ccc(N2C(=O)[C@@H](Oc3ccc(Cl)cc3)[C@H]2c2ccc(Oc3nc(N4CCOCC4)nc(N4CCOCC4)n3)cc2)cc1 (relative stereo),> 100,1.53,> 10000,> 100,> 100,,,,,
O=C1[C@@H](Oc2ccc(Cl)cc2Cl)[C@@H](c2cccc([N+](=O)[O-])c2)N1c1ccc(Nc2nc(N3CCOCC3)nc(N3CCOCC3)n2)cc1 (relative stereo),> 100,> 100,> 10000,> 100,> 100,,,,,
O=C1[C@@H](Oc2ccccc2)[C@@H](c2cccc([N+](=O)[O-])c2)N1c1ccc(Nc2nc(N3CCOCC3)nc(N3CCOCC3)n2)cc1 (relative stereo),> 100,1.98,> 10000,> 100,> 100,,,-2,0.943 ×10⁴ /M,
CCOc1ccc(N2C(=O)[C@@H](Oc3ccccc3)[C@H]2c2ccc(Oc3nc(N4CCOCC4)nc(N4CCOCC4)n3)cc2)cc1 (relative stereo),> 100,> 100,5900,> 100,> 100,,,,,
COc1ccc(N2C(=O)[C@@H](Oc3ccc(Cl)cc3Cl)[C@H]2c2ccc(Oc3nc(N4CCOCC4)nc(N4CCOCC4)n3)cc2)cc1 (relative stereo),> 100,2.7,9600,> 100,> 100,,,,,
O=C1[C@@H](Oc2ccc(Cl)cc2)[C@@H](c2cccc([N+](=O)[O-])c2)N1c1ccc(Nc2nc(N3CCOCC3)nc(N3CCOCC3)n2)cc1 (relative stereo),> 100,100,> 10000,> 100,> 100,,,,,
O=C1[C@@H](Oc2ccc(Cl)cc2Cl)[C@@H](c2ccc([N+](=O)[O-])cc2)N1c1ccc(Nc2nc(N3CCOCC3)nc(N3CCOCC3)n2)cc1 (relative stereo),> 100,35.7,5800,> 100,> 100,,,,,
O=C1[C@@H](Oc2ccc(Cl)cc2Cl)[C@@H](c2ccc(Oc3nc(N4CCOCC4)nc(N4CCOCC4)n3)cc2)N1c1ccc(Nc2nc(N3CCOCC3)nc(N3CCOCC3)n2)cc1 (relative stereo),> 100,> 100,> 10000,> 100,> 100,,,,,
COc1ccc(N2C(=O)[C@@H](Oc3ccc(Cl)cc3)[C@H]2c2ccc(Oc3nc(N4CCOCC4)nc(N4CCOCC4)n3)cc2)cc1 (relative stereo),> 100,30,6200,> 100,> 100,,,,,
O=C1[C@@H](Oc2ccc(Cl)cc2)[C@@H](c2ccc([N+](=O)[O-])cc2)N1c1ccc(Nc2nc(N3CCOCC3)nc(N3CCOCC3)n2)cc1 (relative stereo),> 100,4.88,> 10000,> 100,> 100,,,,2.6 ×10⁵ /M,-5
O=C1[C@@H](Oc2ccccc2)[C@@H](c2ccc([N+](=O)[O-])cc2)N1c1ccc(Nc2nc(N3CCOCC3)nc(N3CCOCC3)n2)cc1 (relative stereo),> 100,17.5,> 10000,> 100,> 100,,,,,
O=C1[C@@H](Oc2ccc(Cl)cc2)[C@@H](c2ccc(Cl)cc2)N1c1ccc(Nc2nc(N3CCOCC3)nc(N3CCOCC3)n2)cc1 (relative stereo),> 100,> 100,> 10000,> 100,> 100,,,,,
O=C1[C@@H](Oc2ccc(Cl)cc2Cl)[C@@H](c2ccc(Cl)cc2)N1c1ccc(Nc2nc(N3CCOCC3)nc(N3CCOCC3)n2)cc1 (relative stereo),> 100,86.2,> 10000,> 100,> 100,,,,,
O=C1O[C@H]([C@@H](O)CO)C(O)=C1O [ASCORBIC ACID],,,195,,,,,,,
COc1cccc2c1C(=O)c1c(O)c3c(c(O)c1C2=O)C[C@@](O)(C(=O)CO)C[C@@H]3O[C@H]1C[C@H](N)[C@H](O)[C@H](C)O1 [DOXORUBICIN],6.1,6.9,,7.3,,,,,,
